Patent US20200093103A1, “BREEDING WATER FOR ANGUILLIFORMES AND METHOD FOR REARING ANGUILLIFORMES” (SHIN NIPPON BIOMEDICAL LABORATORIES, LTD., priority 2016, published 2020)

Test system: Anguilla japonica leptocephali
Assay: Induction of Anguilla japonica metamorphosis by T4 treatment in 23° C. breeding water
Assay type: in vivo
Parameters: key: L: During life, no characteristics of metamorphosis seen.; Stage 1: Starting phase of metamorphosis. The rostral end is rounded, and intestinal degeneration starts.; Stage 2: Peak phase of metamorphosis. Intestinal degeneration becomes pronounced.; Stage 3: Late phase of metamorphosis.; Stage 4: Pre-glass eel stage. Almost the eel form, but the body height still remains
From the text: Stage 1: Starting phase of metamorphosis. The rostral end is rounded, and intestinal degeneration starts.
Stage 2: Peak phase of metamorphosis. Intestinal degeneration becomes pronounced. In the second half, the anus reaches to near the last vertical blood vessel (VBV last).
Stage 3: Late phase of metamorphosis. The preanal length (PAL) becomes equal to or shorter than the last vertical blood vessel length (VBV last Length) (PAL VBV last Length). The body height is apparently low.
Stage 4: Pre-glass eel stage. Almost the eel form, but the body height still remains. Melanophores on the body surface or endogenous melanophores are not yet seen.
Elver stage: Juvenile stage. Food intake can be identified.
A thyroid hormone (e.g., thyroxine (T4)) is adjusted to 50 to 100 mM in a 1- to 2-mL volume messflask. As a solvent, known solvents (water, alcohol) can be used. Ethanol is preferably used as the solvent.
For example, using ethanol as a solvent, T4 adjusted to 50 mM is diluted 500-fold, 5,000-fold, and 50,000-fold, respectively, and adjusted to […], 1 μM, and 100 nM. A feed can be prepared in this manner.
Artificial seawater is added to a breeding vessel, and 1/1000 of the […] T4 is added to prepare […] T4 breeding water.
Half of the breeding water is replaced every two days with breeding water of the same concentration. In the case where the concentration is changed, for example, in the case of changing from 10 nM to 2 nM, 80% to the breeding water is removed, and unadjusted artificial seawater is newly added to make 1 L.
Leptocephali visually considered to have reached a total length of 40 mm (or may be 30 mm to 50 mm, may be 35 mm to 45 mm, or may also be 35 mm or more, 40 mm or more, or 45 mm or more) are selected, anesthetized with 2-phenoxyethanol, and then photographed, and the total length of each larva is measured using an image analyzing device.
The larvae are placed in 10 nM T4 breeding water and then placed in an incubator set at 23° C., and breeding is started. In first one week, observation is performed every two days, and half of the 10 nM T4 breeding water is replaced each time. The average amount of thyroid hormone in the breeding water in stage 1 is 1 nM to 100 nM, for example, and may also be 3 nM to 30 nM, or 5 nM to 20 nM.
For larvae visually judged to have reached the second half of stage 2, the concentration of the breeding water is changed. The breeding water is diluted 5-fold or 10-fold and adjusted to 2 nM or 1 nM T4, and breeding is continued. The average amount of thyroid hormone in the breeding water in stage 2 may be, as compared with the breeding water of stage 1, diluted 2-fold to 20-fold, diluted 3 to 15-fold, or diluted 5 to 10-fold as described above. The average amount of thyroid hormone in the breeding water in stage 2 is 0.1 nM to 20 nM, for example, and may also be 0.5 nM to 10 nM, 1 nM to 5 nM, or 1 nM to 2 nM.
For larvae visually judged to have reached stage 3, the breeding water is quickly changed 0.2 nM T4 breeding water, which is a 5-fold dilution of 1 nM T4 breeding water, and further changed to 0.1 nM T4 breeding water on the following day. […] Also, in larvae whose anus position has not reached the last vertical hemal spine, when they are judged to be on the brink of stage 3, the concentration is changed as above. The average amount of thyroid hormone in the breeding water in stage 3 may be, as compared with the breeding water of stage 2, diluted 2-fold to 50-fold, diluted 3 to 15-fold, diluted 4 to 6-fold, or diluted 5-fold as described above. The average amount of thyroid hormone in the breeding water in stage 3 is 0.01 nM to 2 nM, for example, and may also be 0.05 nM to 1 nM, 0.1 nM to 0.5 nM, or 0.1 nM to 0.2 nM. […] That is, the concentration may be changed such that the thyroid hormone becomes undetectable in the breeding water in the course of stage 3.
In stage 3, breeding is continuously performed in the 0.1 nM T4 breeding water. […]

Q: For `N[C@@H](Cc1cc(I)c(Oc2cc(I)c(O)c(I)c2)c(I)c1)C(=O)O` [T4, thyroxine], which metamorphosis stage (individual Exp 5-5, 174 days old, total length 36.1 mm at start, c3 onward = treatment days 1,3,5,7,8,9,10,11,12,13,14,15,16,17, T4 (nM) 10,10,10,10,10,10,10,2,0.2,0.1,0.1,0.1,0.1,0.1, treatment day 16, T4 0.1 nM) is on record?
A: 3

Q: What about the metamorphosis stage (individual Exp 5-5, 174 days old, total length 36.1 mm at start, c3 onward = treatment days 1,3,5,7,8,9,10,11,12,13,14,15,16,17, T4 (nM) 10,10,10,10,10,10,10,2,0.2,0.1,0.1,0.1,0.1,0.1, treatment day 17, T4 0.1 nM) of the same compound?
A: 4

Q: And the metamorphosis stage (individual Exp 6-2, 129 days old, total length 38.1 mm at start, c3 onward = treatment days 1,3,5,7,9,10,11,12,13,14,15,16,17,18, T4 (nM) 10,10,10,10,10,2,0.2,0.1,0.1,0.1,0.1,0.1,0.1,0.1)?
A: 3

Q: What about the metamorphosis stage (individual Exp. 5-1, 175 days old, total length 38.5 mm at start, c3 onward = treatment days 1,3,5,7,8,9,10,11,12,13,14,15,16,17,18, T4 (nM) 10,10,10,10,2,1,0.2,0.1,0.1,0.1,0.1,0.1, treatment day 1, T4 10 nM) of the same compound?
A: L

Q: What about the metamorphosis stage (individual Exp. 5-1, 175 days old, total length 38.5 mm at start, c3 onward = treatment days 1,3,5,7,8,9,10,11,12,13,14,15,16,17,18, T4 (nM) 10,10,10,10,2,1,0.2,0.1,0.1,0.1,0.1,0.1, treatment day 3, T4 10 nM) of the same compound?
A: L

Q: What about the metamorphosis stage (individual Exp. 5-1, 175 days old, total length 38.5 mm at start, c3 onward = treatment days 1,3,5,7,8,9,10,11,12,13,14,15,16,17,18, T4 (nM) 10,10,10,10,2,1,0.2,0.1,0.1,0.1,0.1,0.1, treatment day 5, T4 10 nM) of the same compound?
A: 1

Q: What about the metamorphosis stage (individual Exp. 5-1, 175 days old, total length 38.5 mm at start, c3 onward = treatment days 1,3,5,7,8,9,10,11,12,13,14,15,16,17,18, T4 (nM) 10,10,10,10,2,1,0.2,0.1,0.1,0.1,0.1,0.1, treatment day 7, T4 10 nM) of the same compound?
A: 2

Q: And the metamorphosis stage (individual Exp. 5-1, 175 days old, total length 38.5 mm at start, c3 onward = treatment days 1,3,5,7,8,9,10,11,12,13,14,15,16,17,18, T4 (nM) 10,10,10,10,2,1,0.2,0.1,0.1,0.1,0.1,0.1, treatment day 8, T4 2 nM)?
A: 2

Q: What about the metamorphosis stage (individual Exp. 5-1, 175 days old, total length 38.5 mm at start, c3 onward = treatment days 1,3,5,7,8,9,10,11,12,13,14,15,16,17,18, T4 (nM) 10,10,10,10,2,1,0.2,0.1,0.1,0.1,0.1,0.1, treatment day 9, T4 1 nM) of the same compound?
A: 2

Q: What about the metamorphosis stage (individual Exp. 5-1, 175 days old, total length 38.5 mm at start, c3 onward = treatment days 1,3,5,7,8,9,10,11,12,13,14,15,16,17,18, T4 (nM) 10,10,10,10,2,1,0.2,0.1,0.1,0.1,0.1,0.1, treatment day 10, T4 0.2 nM) of the same compound?
A: 3

Q: And the metamorphosis stage (individual Exp. 5-1, 175 days old, total length 38.5 mm at start, c3 onward = treatment days 1,3,5,7,8,9,10,11,12,13,14,15,16,17,18, T4 (nM) 10,10,10,10,2,1,0.2,0.1,0.1,0.1,0.1,0.1, treatment day 11, T4 0.1 nM)?
A: 3

Q: And the metamorphosis stage (individual Exp. 5-1, 175 days old, total length 38.5 mm at start, c3 onward = treatment days 1,3,5,7,8,9,10,11,12,13,14,15,16,17,18, T4 (nM) 10,10,10,10,2,1,0.2,0.1,0.1,0.1,0.1,0.1, treatment day 12, T4 0.1 nM)?
A: 3

Q: What about the metamorphosis stage (individual Exp. 5-1, 175 days old, total length 38.5 mm at start, c3 onward = treatment days 1,3,5,7,8,9,10,11,12,13,14,15,16,17,18, T4 (nM) 10,10,10,10,2,1,0.2,0.1,0.1,0.1,0.1,0.1, treatment day 13, T4 0.1 nM) of the same compound?
A: 3

Q: And the metamorphosis stage (individual Exp. 5-1, 175 days old, total length 38.5 mm at start, c3 onward = treatment days 1,3,5,7,8,9,10,11,12,13,14,15,16,17,18, T4 (nM) 10,10,10,10,2,1,0.2,0.1,0.1,0.1,0.1,0.1, treatment day 14, T4 0.1 nM)?
A: 3

Q: What about the metamorphosis stage (individual Exp. 5-1, 175 days old, total length 38.5 mm at start, c3 onward = treatment days 1,3,5,7,8,9,10,11,12,13,14,15,16,17,18, T4 (nM) 10,10,10,10,2,1,0.2,0.1,0.1,0.1,0.1,0.1, treatment day 15, T4 0.1 nM) of the same compound?
A: 4

Q: And the metamorphosis stage (individual Exp. 5-2, 175 days old, total length 41.3 mm at start, c3 onward = treatment days 1,3,5,7,8,9,10,11,12,13,14,15,16,17,18, T4 (nM) 10,10,10,10,2,1,0.2,0.1,0.1,0.1,0.1,0.1, treatment day 1, T4 10 nM)?
A: L

Q: What about the metamorphosis stage (individual Exp. 5-2, 175 days old, total length 41.3 mm at start, c3 onward = treatment days 1,3,5,7,8,9,10,11,12,13,14,15,16,17,18, T4 (nM) 10,10,10,10,2,1,0.2,0.1,0.1,0.1,0.1,0.1, treatment day 3, T4 10 nM) of the same compound?
A: L

Q: What about the metamorphosis stage (individual Exp. 5-2, 175 days old, total length 41.3 mm at start, c3 onward = treatment days 1,3,5,7,8,9,10,11,12,13,14,15,16,17,18, T4 (nM) 10,10,10,10,2,1,0.2,0.1,0.1,0.1,0.1,0.1, treatment day 5, T4 10 nM) of the same compound?
A: 2

Q: And the metamorphosis stage (individual Exp. 5-2, 175 days old, total length 41.3 mm at start, c3 onward = treatment days 1,3,5,7,8,9,10,11,12,13,14,15,16,17,18, T4 (nM) 10,10,10,10,2,1,0.2,0.1,0.1,0.1,0.1,0.1, treatment day 7, T4 10 nM)?
A: 2

Q: And the metamorphosis stage (individual Exp. 5-2, 175 days old, total length 41.3 mm at start, c3 onward = treatment days 1,3,5,7,8,9,10,11,12,13,14,15,16,17,18, T4 (nM) 10,10,10,10,2,1,0.2,0.1,0.1,0.1,0.1,0.1, treatment day 8, T4 2 nM)?
A: 2

Q: What about the metamorphosis stage (individual Exp. 5-2, 175 days old, total length 41.3 mm at start, c3 onward = treatment days 1,3,5,7,8,9,10,11,12,13,14,15,16,17,18, T4 (nM) 10,10,10,10,2,1,0.2,0.1,0.1,0.1,0.1,0.1, treatment day 9, T4 1 nM) of the same compound?
A: 2

Q: And the metamorphosis stage (individual Exp. 5-2, 175 days old, total length 41.3 mm at start, c3 onward = treatment days 1,3,5,7,8,9,10,11,12,13,14,15,16,17,18, T4 (nM) 10,10,10,10,2,1,0.2,0.1,0.1,0.1,0.1,0.1, treatment day 10, T4 0.2 nM)?
A: 3

Q: And the metamorphosis stage (individual Exp. 5-2, 175 days old, total length 41.3 mm at start, c3 onward = treatment days 1,3,5,7,8,9,10,11,12,13,14,15,16,17,18, T4 (nM) 10,10,10,10,2,1,0.2,0.1,0.1,0.1,0.1,0.1, treatment day 11, T4 0.1 nM)?
A: 3

Q: And the metamorphosis stage (individual Exp. 5-2, 175 days old, total length 41.3 mm at start, c3 onward = treatment days 1,3,5,7,8,9,10,11,12,13,14,15,16,17,18, T4 (nM) 10,10,10,10,2,1,0.2,0.1,0.1,0.1,0.1,0.1, treatment day 12, T4 0.1 nM)?
A: 3

Q: What about the metamorphosis stage (individual Exp. 5-2, 175 days old, total length 41.3 mm at start, c3 onward = treatment days 1,3,5,7,8,9,10,11,12,13,14,15,16,17,18, T4 (nM) 10,10,10,10,2,1,0.2,0.1,0.1,0.1,0.1,0.1, treatment day 13, T4 0.1 nM) of the same compound?
A: 3
